Test results published in patent US4425356A, “Lankacidin derivatives used in swine husbandry” (Takeda Chemical Industries, Ltd., priority 1980, dated 1984).
≈ marks a conversion by molar mass, not a printed value. Where “and” joins values, the source holds several entries; their conditions need not be identical. Identical values can stand only once. Like-named read-outs stand apart in the source and are kept apart here.

Tests used:
[1] = system: Treponema hyodysenteriae 78/A strain; test: efficacy against swine dysentery under experimental infection conditions in pigs (drug in feed), Test Examples 5-7; type: in vivo, Landrace pigs; details: for Body weight gain / Feed conversion / Feed intake: 21 day period; for Body weight gain / Feed conversion / Feed intake / Body weight at the time of completion of test: mean per head
Experimental: Lankacidin C was tested for efficacy against swine dysentery under experimental infection conditions. Thus, twelve 6-week-old Landrace pigs (4 per group) were used. The test drug was admixed to a concentration of 100 ppm with the domestically formulated starter feed for young pigs without antibiotics. The animals were provided with the ration ad libitum. Infection of the pigs was effected by direct intragastrical administration to the SPF pigs of an inoculum prepared by preliminary anaerobic cultivation of the Treponema hyodysenteriae 78/A strain on a 5% horse blood added agar plate, mashing together with the culture medium and admixing with 5% mucin added phosphate buffer. Colonic contents and mucosa were collected from pigs which developed typical signs of swine dysentery, and diluted two-fold with 5% mucin added phosphate buffer. The dilution was used as the final inoculum, and 100 ml of the dilution was directly injected into the stomach of test pigs at the age of 7 weeks (fasted for 24 hours before infection). The pigs were fed for 21 days following infection.
The data are each the mean value per head for the 21day period from
infection to autopsy. Different alphabetic letters on the same line
indicate that there is a significant difference between the data to which
they are attached (P <0.05).
Lankacidin C was tested at concentrations in feed of 100 ppm and lower by the same method as in Test Example 5, with carbadox, a commonly used anti-swine-dysentery agent, for comparison.
The anti-swine-dysentery effects of 10 ppm each of lankacidin A and lankacidin C 14-propionate were examined by the procedure of Test Example 6.

Treponema hyodysenteriae = test: in vitro antibacterial activity (MIC, agar dilution method), Test Examples 1-3; type: cell-based; details: 37° C., 2 days, anaerobic; for MIC: Brachyspira hyodysenteriae, 48 h
Experimental: Several agents were tested for in vitro antibacterial activity against Treponema hyodysenteriae, the pathogenic bacteria causing swine dysentery, by the method of testing drug sensitivity of Treponema hyodysenteriae (Kashiwazaki et al. Abstracts of Papers presented at the 82nd Meeting of the Japanese Society of Veterinary Science, page 101, 1976).
(1) Strains: These strains belong to Treponema hyodysenteriae isolated
from the bloody mucous faeces of dysenteric pigs in Japan.
(2) Antimicrobial activity assay: Agar dilution method
(3) Inoculum size: A loopful of bacterial suspension (10^6 CFU/ml)
(4) Cultural conditions: GasPak anaerobic system (BBL), 37° C., 2
Typical agents among compound (I) were tested for in vitro antibacterial activity by the same method as in Test Example 1.
The experimental conditions are the same as in Test Example 1 (Table 1).
Agents of compound (I) were tested for in vitro antibacterial activity by the same method as in Test Example 1.

[2] = 50 ppm in feed, 21-day test period
[3] = strain 78/A, read-out: Minimum Inhibitory Concentration
[4] = strain CD1 (CD-1), read-out: Minimum Inhibitory Concentration
[5] = strain DJ70P1, read-out: Minimum Inhibitory Concentration
[6] = strain MK-2, read-out: Minimum Inhibitory Concentration
[7] = 100 ppm in feed, 21-day test period

Row | Compound | MIC (Treponema hyodysenteriae; [3]) [µg/mL] | MIC (Treponema hyodysenteriae; [4]) [µg/mL] | MIC (Treponema hyodysenteriae; [5]) [µg/mL] | MIC (Treponema hyodysenteriae; [6]) [µg/mL] | other results
1 | COC(=O)N/N=C/c1c[n+]([O-])c2ccccc2[n+]1[O-] [Carbadox, carbadox, reference compound] | – | – | – | – | Number of pigs from which the pathogen was detected, in colonic mucosa ([1]; 50 ppm in feed): 0; Number of pigs from which the pathogen was detected, in feces ([1]; 50 ppm in feed): 0; Number of pigs showing colonic lesions ([1]; 50 ppm in feed): 0; Number of days on which mucous bloody stool was observed [1, 2]: 0 days; Number of pigs showing signs of infection/number of pigs used [1, 2]: 0/4; Body weight gain ([1]; 50 ppm in feed): 473 grams/day and 552 grams/day; Feed conversion ([1]; 50 ppm in feed): 2.08 and 1.83; Feed intake ([1]; 50 ppm in feed): 20.7 kg and 21.2 kg; Body weight at the time of completion of test ([1]; 50 ppm in feed): 21.0 kg and 22.7 kg
2 | CC[C@H]1OC(=O)[C@H](C)[C@@H](O[C@H]2C[C@@](C)(OC)[C@@H](O)[C@H](C)O2)[C@H](C)[C@@H](O[C@@H]2O[C@H](C)C[C@H](N(C)C)[C@H]2O)[C@](C)(O)C[C@@H](C)C(=O)[C@H](C)[C@@H](O)[C@]1(C)O [Erythromycin, reference compound] | – | – | – | – | MIC (Treponema hyodysenteriae; read-out: Minimum Inhibitory Concentration, strain 78/A): > 100 µg/mL; MIC (Treponema hyodysenteriae; read-out: Minimum Inhibitory Concentration, strain CD1 (CD-1)): > 100 µg/mL; MIC (Treponema hyodysenteriae; read-out: Minimum Inhibitory Concentration, strain DJ70P1): > 100 µg/mL; MIC (Treponema hyodysenteriae; read-out: Minimum Inhibitory Concentration, strain MK-2): > 100 µg/mL
3 | CCC(=O)OC1C=CC(C)=CC(NC(=O)C(C)=O)C2(C)C(=O)OC(CC(OC(C)=O)C=CC(C)=CC1)C(C)C2=O (stereo not shown) [Lankacidin A 8-propionate, lankacidin A 8-propionate] | 6.25 (≈ 11.2 µM) | 6.25 (≈ 11.2 µM) | 6.25 (≈ 11.2 µM) | 6.25 (≈ 11.2 µM) | –
4 | CC(=O)OC1C=CC(C)=CC(NC(=O)C(C)=O)C2(C)C(=O)OC(CC(OC(C)=O)C=CC(C)=CC1)C(C)C2=O (stereo not shown) [Lankacidin C 8,14-diacetate, lankacidin C 8,14-diacetate] | 3.13 (≈ 5.76 µM) | 3.13 (≈ 5.76 µM) | 3.13 (≈ 5.76 µM) | 1.56 (≈ 2.87 µM) | –
5 | CCCC(=O)OC1C=CC(C)=CC(NC(=O)C(C)=O)C2(C)C(=O)OC(CC(OC(=O)CCC)C=CC(C)=CC1)C(C)C2=O (stereo not shown) [Lankacidin C 8,14-dibutyrate] | 1.56 (≈ 2.6 µM) | 3.13 (≈ 5.22 µM) | 3.13 (≈ 5.22 µM) | 3.13 (≈ 5.22 µM) | –
6 | CCC(=O)OC1C=CC(C)=CC(NC(=O)C(C)=O)C2(C)C(=O)OC(CC(OC(=O)CC)C=CC(C)=CC1)C(C)C2=O (stereo not shown) [Lankacidin C 8,14-dipropionate, lankacidin C 8,14-dipropionate] | 0.78 (≈ 1.36 µM) | 1.56 (≈ 2.73 µM) | 0.78 (≈ 1.36 µM) | 0.78 (≈ 1.36 µM) | –
7 | CC(=O)C(=O)NC1C=C(C)C=CC(OC(=O)c2ccccc2)CC=C(C)C=CC(O)CC2OC(=O)C1(C)C(=O)C2C (stereo not shown) [Lankacidin C 8-benzoate, lankacidin C 8-benzoate] | 0.1 (≈ 0.177 µM) | 0.1 (≈ 0.177 µM) | 0.1 (≈ 0.177 µM) | 0.1 (≈ 0.177 µM) | –
8 | CCCC(=O)OC1C=CC(C)=CC(NC(=O)C(C)=O)C2(C)C(=O)OC(CC(O)C=CC(C)=CC1)C(C)C2=O (stereo not shown) [Lankacidin C 8-butyrate] | 0.78 (≈ 1.47 µM) | 0.78 (≈ 1.47 µM) | 0.78 (≈ 1.47 µM) | 0.78 (≈ 1.47 µM) | –
9 | CC(=O)C(=O)NC1C=C(C)C=CC(OC(=O)C(C)C)CC=C(C)C=CC(O)CC2OC(=O)C1(C)C(=O)C2C (stereo not shown) [Lankacidin C 8-isobutyrate] | 6.25 (≈ 11.8 µM) | 6.25 (≈ 11.8 µM) | 3.13 (≈ 5.91 µM) | 6.25 (≈ 11.8 µM) | –
10 | CCC(=O)OC1C=CC(C)=CC(NC(=O)C(C)=O)C2(C)C(=O)OC(CC(O)C=CC(C)=CC1)C(C)C2=O (stereo not shown) [Lankacidin C 8-propionate, lankacidin C 8-propionate] | 1.56 (≈ 3.03 µM) | 1.56 (≈ 3.03 µM) | 1.56 (≈ 3.03 µM) | 1.56 (≈ 3.03 µM) | –
11 | CCCCC(=O)OC1C=CC(C)=CC(NC(=O)C(C)=O)C2(C)C(=O)OC(CC(O)C=CC(C)=CC1)C(C)C2=O (stereo not shown) [Lankacidin C 8-valerate] | 1.56 (≈ 2.87 µM) | 3.13 (≈ 5.76 µM) | 1.56 (≈ 2.87 µM) | 3.13 (≈ 5.76 µM) | –
12 | CC(=O)C(=O)NC1C=C(C)C=CC(O)CC=C(C)C=CC(OC(=O)c2ccccc2)CC2OC(=O)C1(C)C(=O)C2C (stereo not shown) [Lankacidin C 14-benzoate, lankacidin C 14-benzoate] | 6.25 (≈ 11.1 µM) | 6.25 (≈ 11.1 µM) | 6.25 (≈ 11.1 µM) | 6.25 (≈ 11.1 µM) | –
13 | CCCC(=O)OC1C=CC(C)=CCC(O)C=CC(C)=CC(NC(=O)C(C)=O)C2(C)C(=O)OC(C1)C(C)C2=O (stereo not shown) [Lankacidin C 14-butyrate] | 0.78 (≈ 1.47 µM) | 1.56 (≈ 2.95 µM) | 1.56 (≈ 2.95 µM) | 3.13 (≈ 5.91 µM) | –
14 | CC(=O)C(=O)NC1C=C(C)C=CC(O)CC=C(C)C=CC(OC=O)CC2OC(=O)C1(C)C(=O)C2C (stereo not shown) [Lankacidin C 14-formate, lankacidin C 14-formate] | 6.25 (≈ 12.8 µM) | 12.5 (≈ 25.6 µM) | 6.25 (≈ 12.8 µM) | 6.25 (≈ 12.8 µM) | –
15 | CC(=O)C(=O)NC1C=C(C)C=CC(O)CC=C(C)C=CC(OC(=O)C(C)C)CC2OC(=O)C1(C)C(=O)C2C (stereo not shown) [Lankacidin C 14-isobutyrate] | 12.5 (≈ 23.6 µM) | 25 (≈ 47.2 µM) | 12.5 (≈ 23.6 µM) | 25 (≈ 47.2 µM) | –
16 | CCCCC(=O)OC1C=CC(C)=CCC(O)C=CC(C)=CC(NC(=O)C(C)=O)C2(C)C(=O)OC(C1)C(C)C2=O (stereo not shown) [Lankacidin C 14-valerate] | 3.13 (≈ 5.76 µM) | 6.25 (≈ 11.5 µM) | 3.13 (≈ 5.76 µM) | 6.25 (≈ 11.5 µM) | –
17 | CO[C@@H]1[C@@H](O[C@@H]2O[C@H](C)[C@@H](O[C@H]3C[C@@](C)(O)[C@@H](OC(=O)CC(C)C)[C@H](C)O3)[C@H](N(C)C)[C@H]2O)[C@@H](CC=O)C[C@@H](C)[C@@H](O)/C=C/C=C/C[C@@H](C)OC(=O)C[C@H]1O [Leucomycin, reference compound] | > 100 | > 100 | > 100 | > 100 | –
18 | CCC[C@@H]1C[C@@H](C(=O)N[C@@H]([C@H]2O[C@H](SC)[C@H](O)[C@@H](O)[C@H]2O)[C@@H](C)O)N(C)C1 [Lincomycin, reference compound] | 50 (≈ 123 µM) | 50 (≈ 123 µM) | 50 (≈ 123 µM) | 50 (≈ 123 µM) | –
19 | CO[C@H]1C[C@H](O[C@H]2[C@H](C)[C@@H](O[C@@H]3O[C@H](C)C[C@H](N(C)C)[C@H]3O)[C@@H](C)C[C@@]3(CO3)C(=O)[C@H](C)[C@@H](O)[C@@H](C)[C@@H](C)OC(=O)[C@@H]2C)O[C@@H](C)[C@@H]1O [Oleandomycin, reference compound] | > 100 | > 100 | > 100 | > 100 | –
20 | Maridomycin [reference compound] | – | – | – | – | Minimum Inhibitory Concentration (Treponema hyodysenteriae; strain 78/A): > 100 µg/mL; Minimum Inhibitory Concentration (Treponema hyodysenteriae; strain CD1 (CD-1)): > 100 µg/mL; Minimum Inhibitory Concentration (Treponema hyodysenteriae; strain DJ70P1): > 100 µg/mL; Minimum Inhibitory Concentration (Treponema hyodysenteriae; strain MK-2): > 100 µg/mL; Number of pigs from which the pathogen was detected, in colonic mucosa ([1]; 100 ppm in feed): 4; Number of pigs from which the pathogen was detected, in feces ([1]; 100 ppm in feed): 4; Number of pigs showing colonic lesions ([1]; 100 ppm in feed): 4; Number of days on which diarrhea was observed [1, 7]: 11.0 days; Number of days on which mucous bloody stool was observed [1, 7]: 5.5 days; Number of pigs showing signs of infection/number of pigs used [1, 7]: 3/4; Body weight gain ([1]; 100 ppm in feed): 430 grams/day; Feed conversion ([1]; 100 ppm in feed): 2.09; Feed intake ([1]; 100 ppm in feed): 18.8 kg; Body weight at the time of completion of test ([1]; 100 ppm in feed): 21.9 kg; effect against swine dysentery (in words) ([1]; pig, in vivo): ineffective
21 | Spiramycin [reference compound] | – | – | – | – | Minimum Inhibitory Concentration (Treponema hyodysenteriae; strain 78/A): > 100 µg/mL; Minimum Inhibitory Concentration (Treponema hyodysenteriae; strain CD1 (CD-1)): > 100 µg/mL; Minimum Inhibitory Concentration (Treponema hyodysenteriae; strain DJ70P1): > 100 µg/mL; Minimum Inhibitory Concentration (Treponema hyodysenteriae; strain MK-2): > 100 µg/mL
